Assay results published in patent US20230012172A1, “COMPOSITIONS AND METHODS FOR TREATMENT OF PLATINUM-BASED CHEMOTHERAPEUTIC RESISTANT TUMORS” (The George Washington University, priority 2020, published 2023).

How the values were obtained:
PEO4 cells = test: Cell viability assay (SRB) in PEO4 cells; type: cell-based
Procedure: Cell culture and resistance cell line establishment. IGROV1 cells, U2OS (HTB-96; ATCC), HEK293T (CRL-11268; ATCC) and SKOV3 cells (HTB-77; ATCC) were cultured at 37° C. in DMEM with 10% Fetal Bovine Serum (FBS). PEO1 (10032308; Sigma-Aldrich), PEO4 (10032309; Sigma-Aldrich), PEO14 (10032311; Sigma-Aldrich) and PE023 cells (10032313; Sigma-Aldrich) were cultured at 37° C. in RPMI-1640 with 10% FBS. OV90 (CRL-11732; ATCC) was cultured in medium containing 1:1 MCDB 105 (Sigma) and M199 (Sigma) supplemented with 10% FBS at 37 ° C. All the cells were cultured at in a humidified incubator with 5% CO2 atmosphere. Cisplatin resistant cell lines, including SKOV3 CR, IGROV1 CR and OV90 CR, were generated using an approach similar to that reported in Zhou et al., (2018) Oncogene 37, 3981-3997, the disclosure of which is incorporated herein in its entirety.
Cell viability assay. Cells were seeded at 3,000 cells/well in 96-well plates were treated with drugs, followed by incubation for 48 hours, after which cell viability was detected using Sulforhodamine B (SRB) assay (64). Absorbance at 510 nm was detected using a SpectraMax Reader (Molecular Devices) and analyzed with SoftMax Analysis Software (Molecular Devices). Combinational index (CI) values were calculated using CompuSyn software.

IGROV1 CR cells = test: IGROV1 CR xenograft in nude mice; type: in vivo; conditions: IGROV1 CR xenograft tumors
Procedure: To further evaluate the therapeutic potential of UA in combination with cisplatin in vivo, IGROV1 CR cells were subcutaneously implanted into nude mice to form platinum drug resistant ovarian tumors. The mice with these tumors were then treated with UA, cisplatin, or combination of both via intraperitoneal injection.
Animal experiments. Xenograft experiments were performed in 6-week female BALB/c athymic nude mice (Jackson Laboratory) by subcutaneously injecting 5×10^6 IGROV1 CR cells within 50% Matrigel gelatinous protein mixture (Corning). Mice were randomized to receive treatment after reached a minimum tumor volume of 150 mm^3. 4 groups of mice (5 mice per group) were treated intraperitoneally with vehicle, cisplatin (8 mg/kg/2day), UA (10 mg/kg/2 days) and combination of UA and cisplatin (10 mg/kg/2 day of UA +8 mg/kg/2 day of cisplatin) for 2 weeks. A minimum of 6 tumors per group were assessed. The tumor volume was calculated according to the formula: length×(width^2)/2.
Immunohistochemistry. Immunohistochemical (IHC) staining and scoring were performed similar to that previously described n Zhou et al., (2018) Oncogene 37, 3981-3997, the disclosure of which is incorporated herein in its entirety. The quantification of immunohistochemical staining was scored blindly at least by two independent observers.

Row | Compound | re-sensitization to cisplatin (PEO4 cells) | synergy with cisplatin (combination index) (PEO4 cells) | expression of pSTAT3 in tumor samples (IHC) (IGROV1 CR cells)
1 | CC1(C)CC[C@]2(C(=O)O)CC[C@]3(C)C(=CC[C@@H]4[C@@]5(C)CC[C@H](O[C@@H]6O[C@H](C(=O)O)[C@@H](O)[C@H](O[C@@H]7OC[C@@H](O)[C@H](O)[C@H]7O)[C@H]6O)C(C)(C)[C@@H]5CC[C@]43C)[C@@H]2C1 [Mc, Momordin Ic] | re-sensitized | synergy | 
2 | C[C@H]1[C@H](C)CC[C@]2(C(=O)O)CC[C@]3(C)C(=CC[C@@H]4[C@@]5(C)CC[C@H](O)C(C)(C)[C@@H]5CC[C@]43C)[C@H]12 [UA, ursolic acid] |  |  | suppressed
